Measured values from patent US20160223525A1, “METHOD OF SCREENING FOR COMPOUNDS USEFUL IN THE TREATMENT OF ALZHEIMER DISEASE” (INNOVATIVE CONCEPTS IN DRUG DEVELOPMENT, priority 2013, published 2016).

Experiments:
[1] = test system: Patient-derived fibroblasts (AD patient, affected cells); assay: Reversal of the AD-signature (mitochondrial behaviour variables V3, V5, V7, V11, V19) by dynamic imaging of MitoTracker green-labelled live cells; type: cell-based, human; conditions: for overall rescue of the diseased (AD) phenotype, weighted by discriminant equation: 30 min incubation, healthy control=100%, AD control=0%; for overall rescue / reversal of the AD-signature, dose-response: across tested doses (0.05/0.1 to 10 μM)
Protocol: Fibroblasts were labelled with MitoTracker green, a cell-permeant mitochondrial dye not sensitive to mitochondrial membrane potential, for 30 minutes. Images were recorded from an epifluorescence microscope continuously for 6 minutes. Cells were kept at 37° C. for the duration of the image capture. For each experimental condition, 3 to 15 cells were recorded per well from three independent plates, i.e. up to 6000 individual mitochondria. The maximum duration for data acquisition was 30 minutes (i.e. five cells observed during 6 min). Images were captured with a Zeiss Axioplan II microscope along three dimensions in space and in time.
Patient-derived fibroblasts were cultured in DMEM containing 15% fetal calf serum and 0.5% DMSO, a concentration known to be inert on the mitochondrial behaviour.
[…] These concentrations are consistent with circulating levels of most drugable small molecules. They are within the range of doses centered on cMax when PK/PD (Pharmacokinetic/Pharmacodynamic) studies are available.
The negative control consists in affected cells treated with the vehicle only (DMSO), the positive control consists in healthy cells treated with the vehicle only (DMSO).
Reference compounds were tested on affected cells and compared to the 2 controls.
All raw data were expressed as a percent of control values (Healthy control=100%, AD control=0%).
Data analysis of the signature variables was particularly tuned to identify bifurcation in the logic of the descriptor measured. These bifurcations and the type of adaptation put in place by the mitochondrial reticular network give us significant insights on how the cell adapts to the test element. Impact of the disease on each individual variable was analyzed through a classical linear analysis with an analysis of variance (ANOVAs). Significant differences between groups are sought through a Bonferroni post-hoc analysis.

[2] = cited from earlier work
[3] = across tested doses (0.1, 1, 10 μM)
[4] = across tested doses (0.1, 1, 10 μM; imatinib also 0.05 μM)

| Structure (SMILES) | overall rescue of the diseased (AD) phenotype, weighted by discriminant equation ([1]; 1 μM) | overall rescue of the diseased (AD) phenotype, weighted by discriminant equation ([1]; 10 μM) | V5 (average cell area or dispersion descriptor of the areas of cells), % of phenotypic rescue ([1]; 1 and 10 μM) | overall rescue / reversal of the AD-signature, dose-response [1] | V7 (total area of regions containing entwined mitochondria to the total cell area), % of phenotypic rescue [1, 3] | V19 (frequency of mitochondria displaying an area between 2.6 and 3.1 μm^2), % of phenotypic rescue [1, 3] | V3 (dispersion descriptor of the moving speeds of mitochondria), % of phenotypic rescue [1, 4] | V11 (cell area covered with mitochondria), % of phenotypic rescue [1, 4] | bioavailability [2] | overall rescue of the diseased (AD) phenotype, weighted by discriminant equation ([1]; 0.1 μM) | V5 (average cell area or dispersion descriptor of the areas of cells), % of phenotypic rescue [1, 3] | V3 (dispersion descriptor of the moving speeds of mitochondria), % of phenotypic rescue ([1]; 0.05 μM) | V5 (average cell area or dispersion descriptor of the areas of cells), % of phenotypic rescue ([1]; 0.05 μM) | V7 (total area of regions containing entwined mitochondria to the total cell area), % of phenotypic rescue ([1]; 0.05 μM) | V11 (cell area covered with mitochondria), % of phenotypic rescue ([1]; 0.05 μM) | V19 (frequency of mitochondria displaying an area between 2.6 and 3.1 μm^2), % of phenotypic rescue ([1]; 0.05 μM) | overall rescue of the diseased (AD) phenotype, weighted by discriminant equation ([1]; 0.05 μM) [%] | overall rescue of the diseased (AD) phenotype ([1]; doses lower than 0.05 μM (not shown)) |
| --- | --- | --- | --- | --- | --- | --- | --- | --- | --- | --- | --- | --- | --- | --- | --- | --- | --- | --- |
| CC(=O)[C@H]1CC[C@H]2[C@@H]3CC[C@H]4C[C@H](O)CC[C@]4(C)[C@H]3CC[C@]12C [Allopregnanolone] | 36% | provided a dose-dependent rescue | rescue was obtained | ability to reverse the AD-signature in a dose-dependent manner | detrimental at the lowest tested dose and tended to improve with increasing concentration of the drug but not to a level where the disease phenotype was reversed | no effect | rescue was obtained at all tested doses | detrimental at the lowest tested dose and tended to improve with increasing concentration of the drug but not to a level where the disease phenotype was reversed | – | – | – | – | – | – | – | – | – | – |
| Oc1ccc(C=Cc2cc(O)cc(O)c2)cc1 [Resveratrol] | did not provide rescue to the AD phenotype but a detrimental effect with worsening of the diseased status | 63% | – | ability to reverse the AD-signature in a dose-dependent manner | seesaw effects | greatly worsened the disease-phenotype | efficient in reversing the disease phenotype | greatly worsened the disease-phenotype | poor bioavailability | did not provide rescue to the AD phenotype but a detrimental effect with worsening of the diseased status | seesaw effects | – | – | – | – | – | – | – |
| Cc1ccc(NC(=O)c2ccc(CN3CCN(C)CC3)cc2)cc1Nc1nccc(-c2cccnc2)n1 [Imatinib] | – | – | – | – | – | – | tended to improve with increasing doses | worsened | – | – | – | not affected | level comparable to that of healthy subject-derived cells | level comparable to that of healthy subject-derived cells | not affected | level comparable to that of healthy subject-derived cells | 54 | no effect |
